# Assay results from US20080207685A1, “Heterocyclic Compounds As Modulators Of Peroxisome Proliferator Activated Receptors, Useful For The Treatment And/Or Prevention Of Disorders Modulated By A Ppar” (Eli Lilly And Company, priority 2003, published 2008).
# Tested on: HuapoAI transgenic mice
# Experiment: Evaluation of triglyceride and cholesterol level in HuapoAI transgenic mice
# Assay type: in vivo
# Conditions: 100 mg/kg oral gavage daily for 7 days; vehicle about 140 to 180 mg/dl
# Experimental: Five to six week old male mice, transgenic for human apoAI [C57B1/6-tgn(apoa1)1rub, Jackson Laboratory, Bar Harbor, Me.] are housed five per cage (10″×20″×8″ with aspen chip bedding) with food (Purina 5001) and water available at all times. After an acclimation period of 2 weeks, animals are individually identified by ear notches, weighed and assigned to groups based on body weight. Beginning the following morning, mice are dosed daily by oral gavage for 7 days using a 20 gauge, 1½″ curved disposable feeding needle. Treatments are test compounds (30 mg/kg), a positive control (fenofibrate, 100 mg/kg) or vehicle [1% carboxymethylcellulose (w/v)/0.25% Tween80 (w/v); 0.2 ml/mouse]. […]
# The animals dosed with vehicle have average triglycerides values of about 60 to 80 mg/dl, which are reduced by the positive control fenofibrate (33-58 mg/dl with a mean reduction of 37%). […] Test compounds evaluated in terms of percent increase in the area under the curve. […]
# Glucose is measured […] by using commercially purchased reagents (Sigma #315-500). […] The absorbance of the dye produced is linearly related to the analyte in the sample. […] Standards (Sigma #339-11, Sigma #16-11, and Sigma #CCO0534 for glucose, triglycerides and total cholesterol, respectively), quality control plasma (Sigma #A2034), and samples (2 or 5 μl/well) are measured in duplicate using 200 μl of reagent. […]
compound,measurement,value
CC(C)OC(=O)C(C)(C)Oc1ccc(C(=O)c2ccc(Cl)cc2)cc1 [fenofibrate],average total serum cholesterol values,190 to 280 mg/dL
